# According to patent US10160762B2, “6-alkyl dihydropyrazolopyrimidinone compounds as PDE2 inhibitors” (Merck Sharp & Dohme Corp., priority 2015, dated 2018):
# Molecular target: T1, human PDE2A1 (Homo sapiens, UniProt O00408)
# T1 construct: GST; purchased BPS Bioscience (San Diego, Calif.) 60020; host or cells: insect cells
# Test: IMAP FP PDE assay, human PDE2A1
# Assay type: biochemical
# Details: Lab B; read-out: Human PDE2 Ki (nM) Lab B
# Method: Selectivity for PDE2, as compared to other PDE families, was assessed using the IMAP® technology. Human PDE10A2 enzyme was prepared from cytosolic fractions of transiently transfected HEK cells. All other PDE's were GST Tag human enzyme expressed in insect cells and were obtained from BPS Bioscience (San Diego, Calif.): PDE1A (Cat#60010), human PDE2A1 (Cat#60020), PDE3A (Cat#60030), PDE4A1A (Cat#60040), PDE5A1 (Cat#60050), PDE6C (Cat#60060), PDE7A (Cat#60070), PDE8A1 (Cat#60080), PDE9A2 (Cat#60090), PDE11A4 (Cat#60110).
# Assays for PDE 1 through 11 were performed in parallel at room temperature in 384-well microtiter plates with an incubation volume of 20.2 μL. Solutions of test compounds were prepared in DMSO and serially diluted with DMSO to yield 30 μL of each of ten solutions differing by 3-fold in concentration, at 32 serial dilutions per plate. […] A Labcyte POD 810 (Labcyte, Sunnyvale, Calif.) was used to dispense 200 nL from each well of the titration plate to make eleven copies of the assay plate for each titration, one copy for each PDE enzyme. A solution of each enzyme (dilution from aliquots, sufficient to produce 20% substrate conversion) and a separate solution of FAM-labeled cAMP or FAM-labeled cGMP from Molecular Devices (Sunnyvale, Calif., product # R7506 or cGMP#R7508), at a final concentration of 50 nM were made in the assay buffer (10 mM Tris HCl, pH 7.2, 10 mM MgCl2, 0.05% NaN3 0.01% Tween-20, and 1 mM DTT). Note that the substrate for PDE2 is 50 nM FAM cAMP containing 1000 nM of cGMP. The enzyme and the substrate were then added to the assay plates in two consecutive additions of 10 μL and then shaken to mix. The reaction was allowed to proceed at room temperature for 60 minutes. A binding solution was then made from the kit components, comprised of 80% Solution A, 20% Solution B and binding reagent at a volume of 1/600 the total binding solution. The enzymatic reaction was stopped by addition of 60 μL of the binding solution to each well of the assay plate. The plates were sealed and shaken for 10 seconds. The plates were incubated at room temperature for one hour, then the parallel and perpendicular fluorescence was measured using a Tecan Genios Pro plate reader (Tecan, Switzerland). The apparent inhibition constants for the compounds against all 11 PDE's was determined from the parallel and perpendicular fluorescent readings as described for PDE10 FP assay using the following apparent KM values for each enzyme and substrate combination: PDE1A (FAM cGMP) 70 nM, human PDE2A1 (FAM cAMP) 10,000 nM, PDE3A (FAM cAMP) 50 nM, PDE4A1A (FAM cAMP) 1500 nM, PDE5A1 (FAM cGMP) 400 nM, PDE6C (FAM cGMP) 700 nM, PDE7A (FAM cAMP) 150 nM, PDE8A1 (FAM cAMP) 50 nM, PDE9A2 (FAM cGMP) 60 nM, PDE10A2 (FAM cAMP) 150 nM, PDE11A4 (FAM cAMP) 1000 nM. The intrinsic PDE2 inhibitory activity of a compound which may be used in accordance with the present invention may be determined by these assays.
# T1 sequence (O00408 1-920 isoform O00408-2): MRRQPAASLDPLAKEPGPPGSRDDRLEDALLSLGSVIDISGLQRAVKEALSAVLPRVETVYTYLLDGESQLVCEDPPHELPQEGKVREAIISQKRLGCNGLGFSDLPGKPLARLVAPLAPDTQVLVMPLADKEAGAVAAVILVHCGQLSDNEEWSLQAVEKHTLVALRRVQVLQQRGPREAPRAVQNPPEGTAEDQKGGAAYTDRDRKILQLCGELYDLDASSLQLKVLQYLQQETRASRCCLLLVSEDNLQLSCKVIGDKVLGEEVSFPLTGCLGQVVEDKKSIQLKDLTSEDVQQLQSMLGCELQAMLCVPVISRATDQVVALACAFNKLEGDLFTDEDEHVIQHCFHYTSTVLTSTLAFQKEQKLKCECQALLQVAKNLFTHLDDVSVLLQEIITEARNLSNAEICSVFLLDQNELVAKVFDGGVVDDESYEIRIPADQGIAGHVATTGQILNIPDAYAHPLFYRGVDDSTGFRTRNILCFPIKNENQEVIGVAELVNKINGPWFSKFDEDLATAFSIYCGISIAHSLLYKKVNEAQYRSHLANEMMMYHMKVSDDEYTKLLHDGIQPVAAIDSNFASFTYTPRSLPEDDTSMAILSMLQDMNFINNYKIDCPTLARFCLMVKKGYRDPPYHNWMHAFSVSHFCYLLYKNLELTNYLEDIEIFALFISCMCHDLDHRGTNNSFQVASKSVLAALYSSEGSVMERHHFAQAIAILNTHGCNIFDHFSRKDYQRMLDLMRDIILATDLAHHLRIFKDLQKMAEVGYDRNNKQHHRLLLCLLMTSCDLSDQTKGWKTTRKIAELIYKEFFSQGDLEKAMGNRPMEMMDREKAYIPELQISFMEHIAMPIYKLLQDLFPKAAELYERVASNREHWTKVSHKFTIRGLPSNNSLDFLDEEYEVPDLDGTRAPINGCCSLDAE
row,Ki [nM],Compound
1,1210,"Cc1nc2c(c(CO)nn2C(C)c2ccc3c(c2)OC(F)(F)O3)c(=O)[nH]1 (single isomer, unassigned) [Example 114, (R)- or (S)-1-(1-(2,2-Difluorobenzo[d][1,3]dioxol-5-yl)ethyl)-3-(hydroxymethyl)-6-methyl-1H-pyrazolo[3,4-d]pyrimidin-4(5H)-one]"
2,7.2,"Cc1nc2c(c(CO)nn2C(C)c2ccc3c(c2)OC(F)(F)O3)c(=O)[nH]1 (single isomer, unassigned) [Example 115, (S)- or (R)-1-(1-(2,2-Difluorobenzo[d][1,3]dioxol-5-yl)ethyl)-3-(hydroxymethyl)-6-methyl-1H-pyrazolo[3,4-d]pyrimidin-4(5H)-one]"
3,392,"Cc1nc2c(c(CO)nn2C(C)c2ccc(C(C)(F)F)cc2)c(=O)[nH]1 (single isomer, unassigned) [Example 116, (R)- or (S)-1-(1-(4-(1,1-Difluoroethyl)phenyl)ethyl)-3-(hydroxymethyl)-6-methyl-1H-pyrazolo[3,4-d]pyrimidin-4(5H)-one]"
4,1.1,"Cc1nc2c(c(CO)nn2C(C)c2ccc(C(C)(F)F)cc2)c(=O)[nH]1 (single isomer, unassigned) [Example 117, (S)- or (R)-1-(1-(4-(1,1-Difluoroethyl)phenyl)ethyl)-3-(hydroxymethyl)-6-methyl-1H-pyrazolo[3,4-d]pyrimidin-4(5H)-one]"
5,323,"Cc1nc2c(c(CO)nn2C(C)c2ccc(OC(F)F)cc2F)c(=O)[nH]1 (single isomer, unassigned) [Example 118, (R)- or (S)-1-(1-(4-(Difluoromethoxy)-2-fluorophenypethyl)-3-(hydroxymethyl)-6-methyl-1H-pyrazolo[3,4-d]pyrimidin-4(5H)-one]"
6,2.7,"Cc1nc2c(c(CO)nn2C(C)c2ccc(OC(F)F)cc2F)c(=O)[nH]1 (single isomer, unassigned) [Example 119, (S)- or (R)-1-(1-(4-(Difluoromethoxy)-2-fluorophenypethyl)-3-(hydroxymethyl)-6-methyl-1H-pyrazolo[3,4-d]pyrimidin-4(5H)-one]"
7,496,"Cc1nc2c(c(CO)nn2C(C)c2ccc(S(F)(F)(F)(F)F)cc2F)c(=O)[nH]1 (single isomer, unassigned) [Example 120]"
8,2.8,"Cc1nc2c(c(CO)nn2C(C)c2ccc(S(F)(F)(F)(F)F)cc2F)c(=O)[nH]1 (single isomer, unassigned) [Example 121]"
9,194,"Cc1nc2c(c(CO)nn2C(C)c2ccc(CC(F)(F)F)cc2)c(=O)[nH]1 (single isomer, unassigned) [Example 122, (R)- or (S)-3-(Hydroxymethyl)-6-methyl-1-(1-(4-(2,2,2-trifluoroethyl)phenyl)ethyl)-1H-pyrazolo[3,4-d]pyrimidin-4(5H)-one]"
10,2.6,"Cc1nc2c(c(CO)nn2C(C)c2ccc(CC(F)(F)F)cc2)c(=O)[nH]1 (single isomer, unassigned) [Example 123, (S) or (R)-3-(Hydroxymethyl)-6-methyl-1-(1-(4-(2,2,2-trifluoroethyl)phenyl)ethyl)-1H-pyrazolo[3,4-d]pyrimidin-4(5H)-one]"
11,521,"Cc1nc2c(c(CO)nn2C(C)[C@H]2CC[C@H](C(F)(F)F)CC2)c(=O)[nH]1 (single isomer, unassigned) [Example 124, (R)- or (S)-3-(Hydroxymethyl)-6-methyl-1-((trans)-4-(trifluoromethyl)cyclohexyl) ethyl)-1H-pyrazolo[3,4-d]-pyrimidin-4(5H)-one]"
12,26,"Cc1nc2c(c(CO)nn2C(C)[C@H]2CC[C@H](C(F)(F)F)CC2)c(=O)[nH]1 (single isomer, unassigned) [Example 125, (S)- or (R)-3-(Hydroxymethyl)-6-methyl-1-((trans)-4-(trifluoro-methyl)cyclohexyl)ethyl)-1H-pyrazolo[3,4-d]pyrimidin-4(5H)-one]"
13,≥ 2960,"Cc1nc2c(c(CO)nn2C(C)c2ccc(C(F)(F)F)nc2)c(=O)[nH]1 (single isomer, unassigned) [Example 130, (R)- or (S)-3-(Hydroxymethyl)-6-methyl-1-(1-(6-(trifluoromethyl)pyridin-3-yl)ethyl)-1H-pyrazolo[3,4-d]pyrimidin-4(5H)-one]"
14,57,"Cc1nc2c(c(CO)nn2C(C)c2ccc(C(F)(F)F)nc2)c(=O)[nH]1 (single isomer, unassigned) [Example 131, (S)- or (R)-3-(Hydroxymethyl)-6-methyl-1-(1-(6-(trifluoro-methyl)pyridin-3-yl)ethyl)-1H-pyrazolo[3,4-d]pyrimidin-4(5H)-one]"
15,66,"CCC(c1ccc(C(F)(F)F)cc1)n1nc(CO)c2c(=O)[nH]c(C)nc21 (single isomer, unassigned) [Example 133, (S)- or (R)-3-(Hydroxymethyl)-6-methyl-1-(1-(4-(trifluoro-methyl)phenyl)propyl)-1H-pyrazolo[3,4-d]pyrimidin-4(5H)-one]"
16,51,"CCC(c1ccc(OC(F)(F)F)cc1)n1nc(CO)c2c(=O)[nH]c(C)nc21 (single isomer, unassigned) [Example 134, (R)- or (S)-3-(Hydroxymethyl)-6-methyl-1-(1-(4-(trifluoro-methoxy)phenyl)propyl)-1H-pyrazolo[3,4-d]pyrimidin-4(5H)-one]"
17,1,"CCC(c1ccc(OC(F)(F)F)cc1)n1nc(CO)c2c(=O)[nH]c(C)nc21 (single isomer, unassigned) [Example 135, (S)- or (R)-3-(Hydroxymethyl)-6-methyl-1-(1-(4-(trifluoro-methoxy)phenyl)propyl)-1H-pyrazolo[3,4-d]pyrimidin-4(5H)-one]"
18,5,"Cc1nc2c(c(CO)nn2C(C)c2c(F)cc(C(F)(F)F)cc2F)c(=O)[nH]1 (single isomer, unassigned) [Example 136]"
19,121,"Cc1nc2c(c(CO)nn2C(C)c2c(F)cc(C(F)(F)F)cc2F)c(=O)[nH]1 (single isomer, unassigned) [Example 137]"
20,> 2960,"Cc1nc2c(c(CO)nn2C(C)c2ccc(C(F)(F)F)c(I)c2)c(=O)[nH]1 (single isomer, unassigned) [Example 138, (R)- or (S)-3-(Hydroxymethyl)-1-(1-(3-iodo-4-(trifluoromethyl-)phenyl)ethyl)-6-methyl-1,5-dihydro-4H-pyrazolo[3,4-d]pyrimidin-4-one]"
21,5.6,"Cc1nc2c(c(CO)nn2C(C)c2ccc(C(F)(F)F)c(I)c2)c(=O)[nH]1 (single isomer, unassigned) [Example 139, (S)- or (R)-3-(Hydroxymethyl)-1-(1-(3-iodo-4-(trifluoromethyl-)phenyl)ethyl)-6-methyl-1,5-dihydro-4H-pyrazolo[3,4-d]pyrimidin-4-one]"
22,939,"Cc1nc2c(c(CO)nn2C(C)c2ccc(C(F)(F)F)cc2I)c(=O)[nH]1 (single isomer, unassigned) [Example 140, (R)- or (S)-3-(Hydroxymethyl)-1-(1-(2-iodo-4-(trifluoromethyl-)phenyl)ethyl)-6-methyl-1,5-dihydro-4H-pyrazolo[3,4-d]pyrimidin-4-one]"
23,12,"Cc1nc2c(c(CO)nn2C(C)c2ccc(C(F)(F)F)cc2I)c(=O)[nH]1 (single isomer, unassigned) [Example 141, (S)- or (R)-3-(Hydroxymethyl)-1-(1-(2-iodo-4-(trifluoromethyl-)phenyl)ethyl)-6-methyl-1,5-dihydro-4H-pyrazolo[3,4-d]pyrimidin-4-one]"
24,193,"Cc1nc2c(c(CO)nn2C(C)c2ccc(C3(C)CC3)cc2)c(=O)[nH]1 (single isomer, unassigned) [Example 143, (R)- or (S)-3-(Hydroxymethyl)-6-methyl-1-(1-(4-(1-methylcyclopropyl)phenyl)ethyl)-1H-pyrazolo[3,4-d]pyrimidin-4(5H)-one]"
